{"source": "patent US9586999B2", "about": "“Methods and compositions related to improving properties of pharmacological agents targeting nervous system” (University of Utah Research Foundation, priority 2006, dated 2017)", "key": {"6 Hz limbic seizures": {"system": "6 Hz limbic seizures", "experiment": "6 Hz limbic (psychomotor) seizure test", "assay_type": "in vivo, mouse", "settings": "for ED50: Mus musculus, ip; for ED50 / ED50 in the 6 Hz limbic seizure model (in Table 14 in parentheses): i.p.; for effect against 6 Hz (22 mA) limbic seizures: administered into the ventricular space, CF-1 mice; for ED50 in the 6 Hz limbic seizure model (in Table 14 in parentheses): SAR analogs; for % Protection at 1, 2 and 4 hours afforded by a dose of 4 mg/kg, i.p. (result in words): all time points; for % Protection at 30 min (4 mg/kg, i.p.): octreotide and DSIP analogs", "excerpt": "Mice not displaying limbic seizures were considered protected.\nAs mentioned above, the 6 Hz seizure becomes more resistant to block by antiepileptic drugs as the current is increased from 22 mA to 44 mA."}, "[1]": {"system": "formalin-induced paw licking", "experiment": "Mouse formalin test of inflammatory pain", "assay_type": "in vivo", "settings": "for phase II response at the active dose: mouse formalin assay; for Active at: mouse formalin assay of inflammatory pain; for potency in mouse formalin assay: in vivo", "protocol": "An injection of 0.5% formalin is made into the planter region of a mouse right hind paw. This elicits a distinct biphasic behavioral profile characterized by the mouse licking the affected paw. Immediately following the injection the mouse licks the paw for about 10 minutes. This is phase 1 (acute) and is followed by a brief latent period where there is little behavioral activity. A more prolonged period of about 20 to 30 minutes of paw licking ensues which constitutes phase 2 (inflammatory).\nPrior to the administration of the active peptide, drug or vehicle each mouse undergoes a 15-minute conditioning period in one of several 6″ tall plexiglass observation tubes (4″ diameter) that are placed in front of a mirror. […] One hour after treatment, formalin was injected sub-dermally (20 μl; 27 gauge needle) into the plantar surface of the right hind foot. The bevel of the needle is placed facing down toward the skin surface. Following the injection of the formalin each animal is observed for first 2 minutes of each 5 minute epoch for a total of 45 minutes. The cumulative length of licking for each 2 minute time period was measured. An animal receiving the requisite volume of vehicle was alternated with each mouse given GAL-BBB2, Gal 1-16, or gabapentin. Animals were euthanized following the conclusion of the experiment.\nArea under the curve (AUC) determination was made using the GraphPad Prism Version 3.03. Total AUC is calculated for both the test and control groups for both the acute and inflammatory phases. The AUC for individual animals for each phase is also calculated and converted to percentage of total AUC of control. The average percentages and SEM for both the drug treated and control were calculated and tested for significant difference."}, "sound-induced seizures": {"system": "sound-induced seizures", "experiment": "Frings audiogenic seizure-susceptible mouse model of reflex epilepsy", "assay_type": "in vivo", "excerpt": "(§1) The ability of individual modified peptides to prevent seizures induced by sound in the AGS-susceptible Frings mouse model can be assessed at the time of peak effect (White et al., 1992). For this test, individual mice are placed into a plexiglass cylinder (diameter, 15 cm; height, 18 cm) fitted with an audio transducer (Model AS-ZC; FET Research and Development, Salt Lake City, Utah), and exposed to a sound stimulus of 110 decibels (11 KHz) delivered for 20 seconds. Sound-induced seizures are characterized by wild running followed by loss of righting reflex with forelimb and hindlimb tonic extension. Mice not displaying hindlimb tonic extension are considered protected.\nThe two modified galanin analogs (GAL-BBB1 and GAL-BBB2) were administered i.p. to a group of Frings audiogenic seizure susceptible mice in a dose of 4 mg/kg. At various times after administration (i.e., 15, 30, 60, 120, and 240 min) each mouse was placed into a cylindrical test chamber fitted with an audio transducer and challenged with a high-intensity sound stimulus (110 dB, 11 KHz for 20 sec). Animals not displaying tonic hind-limb extension were considered protected. […] In a subsequent study, anticonvulsant efficacy was quantitated at the time to peak effect (i.e., 1 h) in a dose-response study.\nas §1, with “analogs” for “peptides”\nAt various times after administration (i.e., 15, 30, 60, 120, and 240 min) each mouse was placed into a cylindrical test chamber fitted with an audio transducer and challenged with a high-intensity sound stimulus (110 dB, 11 KHz for 20 sec)."}, "[2]": {"settings": "stimulus intensity 22 mA, read-out: 22 mA (ED50, 6 Hz model)"}, "[3]": {"settings": "stimulus intensity 32 mA, read-out: 32 mA (ED50, 6 Hz model)"}, "[4]": {"settings": "stimulus intensity 44 mA, read-out: 44 mA (ED50, 6 Hz model)"}}, "note": "Values joined by “and” are separate entries in the source; they are usually repeats but may differ in a detail not shown here. Identical values can stand only once. “Also recorded” adds a separate entry of the source. Like-named read-outs stand apart in the source and are kept apart here. Square brackets hold non-standard residues; d marks the D form. Ends that are not written are not given here. Ahx = NCCCCCC(=O)O"}
{"compound": "CCC1(C)CC(=O)NC1=O", "note": "(centres unmarked) [Ethosuximide, reference compound]", "values": [{"measurement": "ED50", "setting": "6 Hz limbic seizures; [2]", "result": 86.9, "unit": "mg/kg"}, {"measurement": "ED50", "setting": "6 Hz limbic seizures; [3]", "result": 167, "unit": "mg/kg"}, {"measurement": "ED50", "setting": "6 Hz limbic seizures; [4]", "result": 600, "unit": "mg/kg"}]}
{"compound": "Nc1nnc(-c2cccc(Cl)c2Cl)c(N)n1", "note": "[Lamotrigine, reference compound]", "values": [{"measurement": "ED50", "setting": "6 Hz limbic seizures; [2]", "result": 4.4, "unit": "mg/kg"}, {"measurement": "ED50", "setting": "6 Hz limbic seizures; [3]", "result": "> 60", "unit": "mg/kg"}, {"measurement": "ED50", "setting": "6 Hz limbic seizures; [4]", "result": "> 60", "unit": "mg/kg"}]}
{"compound": "O=C1NC(=O)C(c2ccccc2)(c2ccccc2)N1", "note": "[Phenytoin, reference compound]", "values": [{"measurement": "ED50", "setting": "6 Hz limbic seizures; [2]", "result": 9.4, "unit": "mg/kg"}, {"measurement": "ED50", "setting": "6 Hz limbic seizures; [3]", "result": "> 60", "unit": "mg/kg"}, {"measurement": "ED50", "setting": "6 Hz limbic seizures; [4]", "result": "> 60", "unit": "mg/kg"}]}
{"compound": "CCCC(CCC)C(=O)O", "note": "[Valproic acid, reference compound]", "values": [{"measurement": "ED50", "setting": "6 Hz limbic seizures; [2]", "result": 41.5, "unit": "mg/kg"}, {"measurement": "ED50", "setting": "6 Hz limbic seizures; [4]", "result": 310, "unit": "mg/kg"}]}
{"compound": "C[C@H](N)C(=O)NCC(=O)N[C@H]1CSSC[C@@H](C(=O)O)NC(=O)[C@H](CO)NC(=O)[C@H]([C@@H](C)O)NC(=O)[C@H](Cc2ccccc2)NC(=O)[C@H]([C@@H](C)O)NC(=O)[C@H](CCCCN)NC(=O)[C@H](Cc2c[nH]c3ccccc23)NC(=O)[C@H](Cc2ccccc2)NC(=O)[C@H](Cc2ccccc2)NC(=O)[C@H](CC(N)=O)NC(=O)[C@H](CCCCN)NC1=O", "note": "[somatostatin, reference compound]", "values": [{"measurement": "effect against 6 Hz (22 mA) limbic seizures", "setting": "6 Hz limbic seizures", "result": "effective"}]}
{"compound": "(Sar)WTLNSAGY(Ahx)KK(Lys-P)K [NAX 306-4]", "values": [{"measurement": "% Protection at 2 hours afforded by a dose of 4 mg/kg, i.p.", "setting": "6 Hz limbic seizures; 4 mg/kg i.p., 4 mg/kg", "result": "0% and 0%, 0%"}, {"measurement": "% Protection at 4 hours afforded by a dose of 4 mg/kg, i.p.", "setting": "6 Hz limbic seizures; 4 mg/kg i.p., 4 mg/kg", "result": "0% and 0%, 0%"}, {"measurement": "ED50 in the 6 Hz limbic seizure model (in Table 14 in parentheses)", "setting": "6 Hz limbic seizures", "result": "(2.95 mg/kg)"}, {"measurement": "activity in the second response phase of the inflammatory pain assay", "setting": "[1]; 2.95 mg/kg", "result": "very active"}, {"measurement": "phase II response at the active dose", "setting": "[1]", "result": "(“flat phase II”)"}, {"measurement": "Active at", "setting": "[1]", "result": 2.9, "unit": "mg/kg"}, {"measurement": "potency in mouse formalin assay", "setting": "[1]", "result": "potent"}]}
{"compound": "(Sar)WTLNSAGYKK(Lys-P)K [NAX 306-3]", "values": [{"measurement": "% Protection at 2 hours afforded by a dose of 4 mg/kg, i.p.", "setting": "6 Hz limbic seizures; 4 mg/kg i.p.", "result": 25, "unit": "%"}, {"measurement": "% Protection at 4 hours afforded by a dose of 4 mg/kg, i.p.", "setting": "6 Hz limbic seizures; 4 mg/kg i.p.", "result": 0, "unit": "%"}, {"measurement": "ED50 in the 6 Hz limbic seizure model (in Table 14 in parentheses)", "setting": "6 Hz limbic seizures", "result": "(2.7 mg/kg)"}, {"measurement": "phase II response at the active dose", "setting": "[1]", "result": "(“flat phase II”)"}, {"measurement": "Active at", "setting": "[1]", "result": 2.7, "unit": "mg/kg"}, {"measurement": "potency in mouse formalin assay", "setting": "[1]", "result": "potent"}]}
{"compound": "(Sar)WTLNSAGYLLGPDKDK(Lys-P)DK [NAX 1205-2]", "values": [{"measurement": "% Protection at 2 hours afforded by a dose of 4 mg/kg, i.p.", "setting": "6 Hz limbic seizures; 4 mg/kg i.p.", "result": 50, "unit": "%"}, {"measurement": "% Protection at 4 hours afforded by a dose of 4 mg/kg, i.p.", "setting": "6 Hz limbic seizures; 4 mg/kg i.p.", "result": 75, "unit": "%"}, {"measurement": "ED50 in the 6 Hz limbic seizure model (in Table 14 in parentheses)", "setting": "6 Hz limbic seizures", "result": "(1.2 mg/kg)"}]}
{"compound": "(Sar)WTLNSAGYLLGPHA(Lys-P) [NAX 306-5]", "values": [{"measurement": "% Protection at 1, 2 and 4 hours afforded by a dose of 4 mg/kg, i.p. (result in words)", "setting": "6 Hz limbic seizures; 4 mg/kg i.p.", "result": "Not active"}]}
{"compound": "(Sar)WTLNSAGYLLGPRR(Lys-P)R [NAX 1205-3]", "values": [{"measurement": "% Protection at 2 hours afforded by a dose of 4 mg/kg, i.p.", "setting": "6 Hz limbic seizures; 4 mg/kg i.p.", "result": 75, "unit": "%"}, {"measurement": "% Protection at 4 hours afforded by a dose of 4 mg/kg, i.p.", "setting": "6 Hz limbic seizures; 4 mg/kg i.p.", "result": 0, "unit": "%"}]}
{"compound": "(Sar)WTLNSAGYLLKK(Lys-P)K [NAX 1205-5]", "values": [{"measurement": "% Protection at 2 hours afforded by a dose of 4 mg/kg, i.p.", "setting": "6 Hz limbic seizures; 4 mg/kg i.p.", "result": 25, "unit": "%"}, {"measurement": "% Protection at 4 hours afforded by a dose of 4 mg/kg, i.p.", "setting": "6 Hz limbic seizures; 4 mg/kg i.p.", "result": 0, "unit": "%"}]}
{"compound": "DPhe-Cys-Phe-DTrp-Lys-Thr-Cys-Thr-NH2 [SEQ ID NO: 148, reference compound]", "values": [{"measurement": "% Protection at 30 min (4 mg/kg, i.p.)", "setting": "6 Hz limbic seizures; 4 mg/kg i.p.", "result": 50, "unit": "%"}]}
{"compound": "GWTLNSAGYLLGPHAV [Gal(1-16), reference compound]", "values": [{"measurement": "% Protection at 1, 2 and 4 hours afforded by a dose of 4 mg/kg, i.p. (result in words)", "setting": "6 Hz limbic seizures; 4 mg/kg i.p.", "result": "Not active"}, {"measurement": "ED50 following i.c.v. administration", "setting": "6 Hz limbic seizures; intracerebroventricular, 6 Hz (32 mA)", "result": 1.7, "unit": "nmol"}, {"measurement": "anticonvulsant activity of native fragment", "setting": "sound-induced seizures; 20 mg/kg i.p.", "result": "inactive; also recorded: but not the native GAL(1-16) fragment (20 mg/kg) was effective"}, {"measurement": "activity of native fragment in formalin test", "setting": "[1]; 20 mg/kg i.p.", "result": "inactive"}]}
{"compound": "Lys-Lys-Lys(palm)-Lys-Ahx-DPhe-Cys-Phe-DTrp-Lys-Thr-Cys-Thr-NH2 [SEQ ID NO: 149]", "values": [{"measurement": "% Protection at 30 min (4 mg/kg, i.p.)", "setting": "6 Hz limbic seizures; 4 mg/kg i.p.", "result": 100, "unit": "%"}]}
{"compound": "Sar-Trp-Thr-Leu-Asn-Ser-Ala-Gly-Tyr-Leu-Leu-Gly-Pro-His-(Lys-palm)-Tle-NH2 [GAL-BBB1]", "values": [{"measurement": "anticonvulsant activity (protection from tonic hind-limb extension)", "setting": "sound-induced seizures; 4 mg/kg i.p., 15-240 min, also higher dose of 12 mg/kg", "result": "not active at any time point tested"}]}
{"compound": "WAGGDFSGE [DSIP, reference compound]", "values": [{"measurement": "% Protection at 30 min (4 mg/kg, i.p.)", "setting": "6 Hz limbic seizures; 4 mg/kg i.p.", "result": 0, "unit": "%"}, {"measurement": "effect against 6 Hz (22 mA) limbic seizures", "setting": "6 Hz limbic seizures", "result": "effective"}]}
{"compound": "[Ahx]GGWAGGDFSGE [SEQ ID NO: 142]", "values": [{"measurement": "% Protection at 30 min (4 mg/kg, i.p.)", "setting": "6 Hz limbic seizures; 4 mg/kg i.p.", "result": 50, "unit": "%"}, {"measurement": "% Protection after 2 hours", "setting": "6 Hz limbic seizures; 2 hours, 4 mg/kg i.p.", "result": "NO: 142) (100% after 2 hours)"}]}
